Results from patent US11655246B2, “Aminothiazole compounds as inhibitors of CTPS1” (STEP PHARMA S.A.S., priority 2017, dated 2023).
Several values for one entry are separate records, joined by “and”; a condition that tells them apart may be missing. Equal values may be shown once.

Each molecule was assayed against T1, human CTPS1 (Homo sapiens, UniProt P17812) (assay: Human CTPS1 enzyme inhibition (ADP-Glo Max assay)). Conditions: Table 17, 25° C., read-out: CTPS1 (Human CTPS1 Enzyme Inhibition data grouped by potency range).
T1 construct: purchased Proteros biostructures GmbH
T1 sequence (P17812 1-591): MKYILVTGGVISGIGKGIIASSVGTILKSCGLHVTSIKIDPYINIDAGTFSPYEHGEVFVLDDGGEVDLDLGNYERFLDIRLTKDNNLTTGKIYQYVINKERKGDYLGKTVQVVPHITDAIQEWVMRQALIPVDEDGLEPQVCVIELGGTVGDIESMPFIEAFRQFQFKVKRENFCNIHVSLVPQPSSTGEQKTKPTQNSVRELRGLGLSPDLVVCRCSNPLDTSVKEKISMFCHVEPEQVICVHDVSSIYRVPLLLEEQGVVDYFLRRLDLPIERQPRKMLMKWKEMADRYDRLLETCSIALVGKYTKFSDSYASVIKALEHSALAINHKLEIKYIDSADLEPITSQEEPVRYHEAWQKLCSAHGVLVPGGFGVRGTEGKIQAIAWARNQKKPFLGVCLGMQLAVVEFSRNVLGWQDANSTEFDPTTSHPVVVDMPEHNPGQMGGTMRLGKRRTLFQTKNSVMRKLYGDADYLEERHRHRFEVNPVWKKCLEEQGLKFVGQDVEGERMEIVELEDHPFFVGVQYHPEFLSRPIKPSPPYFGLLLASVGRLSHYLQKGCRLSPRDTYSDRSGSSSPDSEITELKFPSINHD
Format: biochemical
Method: The enzyme inhibitory activities of compounds invented against the target of interest were determined using the ADP-Glo™ Max assay (Promega, UK). Assays for human CTPS1 were performed in 1× assay buffer containing 50 mM Tris, 10 mM MgCl2, 0.01% Tween-20, pH to 8.0 accordingly. Finally, immediately before use, L-cysteine was added to the 1× assay buffer to a final concentration of 2 mM. All reagents are from Sigma-Aldrich unless specified otherwise.
3× human CTPS1 protein was prepared in 1× assay buffer to the final working protein concentration required for the reaction. A 2 uL volume per well of 3× human CTPS1 protein was mixed with 2 uL per well of 3× test compound (compound prepared in 1× assay buffer to an appropriate final 3× compound concentration respective to the concentration response curve designed for the compounds under test) for 10 minutes at 25° C. […] ADP-Glo™ Max reagent was added for 60 minutes (6 uL per well) and subsequently ADP-Glo™ Max development reagent was added for 60 minutes (12 uL per well) prior to signal detection in a microplate reader (EnVision® Multilabel Reader, Perkin Elmer). Following each reagent addition over the course of the assay, assay plates were pulse centrifuged for 30 seconds at 500 rpm.
In all cases, the enzyme converts ATP to ADP and the ADP-Glo™ Max reagent subsequently depletes any remaining endogenous ATP in the reaction system. The ADP-Glo™ Max detection reagent converts the ADP that has been enzymatically produced back into ATP and using ATP as a substrate together with luciferin for the enzyme luciferase, light is generated which produces a detectable luminescence. […] The percentage inhibition produced by each concentration of compound was calculated using the equation shown below: […]

| SMILES | IC50 |
| --- | --- |
| CCC(C(=O)Nc1ccc(-c2cncc(C#N)n2)cc1)c1csc(NS(=O)(=O)C2CC2)n1 (stereo not shown) [T79] | 100 to 1000 nM |
| O=C(Nc1ccc(-c2ccccc2)cc1)C1CCCc2sc(NS(=O)(=O)C3CC3)nc21 (stereo not shown) [T83] | 1000 to 10000 nM |
| O=C(Nc1ccc(-c2cccnc2)cc1)C1CCCc2sc(NS(=O)(=O)C3CC3)nc21 (stereo not shown) [T84] | 100 to 1000 nM |
| CCC(C(=O)Nc1ccc(-c2ccccc2)cc1)c1csc(NS(=O)(=O)C2CC2)n1 (stereo not shown) [T85] | 100 to 1000 nM |
| CC(C)C(C(=O)Nc1ccc(-c2ccccc2)cc1)c1csc(NS(=O)(=O)C2CC2)n1 (stereo not shown) [T86] | 1000 to 10000 nM |
| CC(C)(C(=O)Nc1ccc(-c2cccc(Cl)c2)cc1)c1csc(NS(=O)(=O)C2CC2)n1 [T87] | 100 to 1000 nM |
| CC(C)(C(=O)Nc1ccc(-c2cccc(C#N)c2)cc1)c1csc(NS(=O)(=O)C2CC2)n1 [T88] | 100 to 1000 nM |
| Cc1ncccc1-c1ccc(NC(=O)Cc2csc(NS(=O)(=O)C3CC3)n2)cc1 [T100] | 100 to 1000 nM |
| CC(C)(C(=O)Nc1ccc(-c2cccnc2)c(Cl)c1)c1csc(NS(=O)(=O)C2CC2)n1 [T153] | 100 to 1000 nM |
| O=C(Nc1ccc(-c2cncc(C(F)(F)F)n2)cn1)C1CCc2sc(NS(=O)(=O)C3CC3)nc21 (stereo not shown) [T169] | 100 to 1000 nM |
| COCCC(C(=O)Nc1ccc(-c2cnccn2)cn1)c1csc(NS(=O)(=O)C2CC2)n1 (stereo not shown) [T170] | 100 to 1000 nM |
| CCC(C(=O)Nc1ccc(-c2cncc(C#N)n2)cn1)c1csc(NS(=O)(=O)C2CC2)n1 (stereo not shown) [T178] | 1000 to 10000 nM |
| CCC(C(=O)Nc1ccc(-c2ccccc2)cn1)c1csc(NS(=O)(=O)C2CC2)n1 (stereo not shown) [T181] | 100 to 1000 nM |
| CCC(C(=O)Nc1ncc(-c2cncc(C#N)n2)cc1F)c1csc(NS(=O)(=O)C2CC2)n1 (stereo not shown) [T184] | 1000 to 10000 nM |
| CCC(C(=O)Nc1ccc(-c2cncc(OCC(F)(F)F)c2)cn1)c1csc(NS(=O)(=O)C2CC2)n1 (stereo not shown) [T185] | < 100 nM and 100 to 1000 nM |
| CCC(C(=O)Nc1ccc(-c2cncc(C(F)(F)F)n2)cc1F)c1csc(NS(=O)(=O)C2CC2)n1 (stereo not shown) [T197] | < 100 nM |

| SMILES | IC50 |
| --- | --- |
| CCOc1cncc(-c2ccc(NC(=O)C(CC)c3csc(NS(=O)(=O)C4CC4)n3)c(F)c2)n1 (stereo not shown) [T198] | < 100 nM |
| CCOc1cncc(-c2ccc(NC(=O)C(CC)c3csc(NS(=O)(=O)C4CC4)n3)c(F)c2)c1 (stereo not shown) [T199] | < 100 nM |
| CCC(C(=O)Nc1ccc(-c2cncc(F)c2)cc1F)c1csc(NS(=O)(=O)C2CC2)n1 (stereo not shown) [T200] | < 100 nM |
| CCC(C(=O)Nc1ccc(-c2cccnc2)cc1F)c1csc(NS(=O)(=O)C2CC2)n1 (stereo not shown) [T201] | < 100 nM |
| CCC(C(=O)Nc1ccc(-c2cncc(C#N)c2)cc1F)c1csc(NS(=O)(=O)C2CC2)n1 (stereo not shown) [T202] | < 100 nM |
| CCC(C(=O)Nc1ccc(-c2cncc(Cl)c2)cc1F)c1csc(NS(=O)(=O)C2CC2)n1 (stereo not shown) [T203] | < 100 nM |
| CCOc1cncc(-c2ccc3c(c2)CCN3C(=O)C(CC)c2csc(NS(=O)(=O)C3CC3)n2)n1 (stereo not shown) [T206] | < 100 nM |
| CCC(C(=O)Nc1ccc(-c2cncc(OCC(F)(F)F)n2)cc1F)c1csc(NS(=O)(=O)C2CC2)n1 (stereo not shown) [T207] | < 100 nM |
| CCC(C(=O)Nc1ccc(-c2cncc(OC)n2)cc1F)c1csc(NS(=O)(=O)C2CC2)n1 (stereo not shown) [T208] | < 100 nM |
| CCC(C(=O)Nc1ccc(-c2cncc(OC(F)F)c2)cc1F)c1csc(NS(=O)(=O)C2CC2)n1 (stereo not shown) [T209] | < 100 nM |
| CCC(C(=O)Nc1ccc(-c2cncc(OC(F)F)c2)cc1)c1csc(NS(=O)(=O)C2CC2)n1 (stereo not shown) [T210] | < 100 nM |
| CCC(C(=O)Nc1ccc(-c2cncc(OCC(F)(F)F)c2)cc1)c1csc(NS(=O)(=O)C2CC2)n1 (stereo not shown) [T211] | < 100 nM and 100 to 1000 nM |
| CCC(C(=O)Nc1ccc(-c2cncc(OCC(F)(F)F)c2)cc1F)c1csc(NS(=O)(=O)C2CC2)n1 (stereo not shown) [T212] | < 100 nM |
| O=C(Nc1ccc(-c2cccnc2)cc1)C1CCc2sc(NS(=O)(=O)C3CC3)nc21 (stereo not shown) [T213] | 100 to 1000 nM |
| COC(C(=O)Nc1ccc(-c2cncc(C(F)(F)F)n2)cn1)c1csc(NS(=O)(=O)C2CC2)n1 (stereo not shown) [T214] | < 100 nM |
| N#Cc1cncc(-c2ccc(NC(=O)C3CCc4sc(NS(=O)(=O)C5CC5)nc43)cc2)c1 (stereo not shown) [T217] | < 100 nM |

The next lines start with the values.

| IC50 | SMILES |
| --- | --- |
| < 100 nM | CCC(C(=O)Nc1ccc(-c2cncc(OC(C)C)n2)cc1)c1csc(NS(=O)(=O)C2CC2)n1 (stereo not shown) [T76] |
| < 100 nM | CCC(C(=O)Nc1ccc(-c2cncc(OC3CC3)n2)cc1)c1csc(NS(=O)(=O)C2CC2)n1 (stereo not shown) [T77] |
| < 100 nM | CCC(C(=O)Nc1ccc(-c2cncc(Cl)n2)cc1)c1csc(NS(=O)(=O)C2CC2)n1 (stereo not shown) [T78, N-(4-(6-chloropyrazin-2-yl)phenyl)-2-(2-(cyclopropanesulfonamido)thiazol-4-yl)butanamide] |
| < 100 nM | O=C(Nc1ccc(-c2cccnc2)cc1)C(F)(F)c1csc(NS(=O)(=O)C2CC2)n1 [T89] |
| < 100 nM | CCC(C(=O)Nc1ccc(-c2cncc(F)c2)cc1)c1csc(NS(=O)(=O)C2CC2)n1 (stereo not shown) [T90] |
| < 100 nM | CCOc1cncc(-c2ccc(NC(=O)C(C)c3csc(NS(=O)(=O)C4CC4)n3)cc2)c1 (stereo not shown) [T94] |
| < 100 nM | CC(C(=O)Nc1ccc(-c2cncc(Cl)c2)cc1)c1csc(NS(=O)(=O)C2CC2)n1 (stereo not shown) [T95] |
| < 100 nM | CCOc1cncc(-c2ccc(NC(=O)C(CC)c3csc(NS(=O)(=O)C4CC4)n3)cc2)c1 (stereo not shown) [T96] |
| < 100 nM | CC(C(=O)Nc1ccc(-c2cccnc2)cc1)c1csc(NS(=O)(=O)C2CC2)n1 (stereo not shown) [T102] |
| < 100 nM | CCC(CC)(C(=O)Nc1ccc(-c2cncc(Cl)c2)cc1)c1csc(NS(=O)(=O)C2CC2)n1 [T120] |
| < 100 nM | CCC(CC)(C(=O)Nc1ccc(-c2cncc(Cl)n2)cc1)c1csc(NS(=O)(=O)C2CC2)n1 [T160] |
| < 100 nM | COCCC(C(=O)Nc1ccc(-c2cncc(OC)c2)cn1)c1csc(NS(=O)(=O)C2CC2)n1 (stereo not shown) [T171] |
| < 100 nM | CC(C)OC(C(=O)Nc1ccc(-c2cncc(C(F)(F)F)n2)cn1)c1csc(NS(=O)(=O)C2CC2)n1 (stereo not shown) [T172] |
| < 100 nM | CCCOc1cncc(-c2ccc(NC(=O)C(CC)c3csc(NS(=O)(=O)C4CC4)n3)nc2)n1 (stereo not shown) [T173] |
| < 100 nM | CCC(C(=O)Nc1ccc(-c2cncc(OC(C)C)n2)cn1)c1csc(NS(=O)(=O)C2CC2)n1 (stereo not shown) [T174] |
| < 100 nM | CCC(C(=O)Nc1ccc(-c2cncc(C(F)(F)F)n2)cn1)c1csc(NS(=O)(=O)C2CC2)n1 (stereo not shown) [T175] |

| IC50 | SMILES |
| --- | --- |
| < 100 nM | CCC(C(=O)Nc1ccc(-c2cncc(OC)n2)cn1)c1csc(NS(=O)(=O)C2CC2)n1 (stereo not shown) [T176] |
| < 100 nM | CCOc1cncc(-c2ccc(NC(=O)C(CC)c3csc(NS(=O)(=O)C4CC4)n3)nc2)n1 (stereo not shown) [T177] |
| < 100 nM | CCC(C(=O)Nc1ccc(-c2cncc(F)c2)cn1)c1csc(NS(=O)(=O)C2CC2)n1 (stereo not shown) [T179] |
| < 100 nM | CCC(C(=O)Nc1ccc(-c2cncc(C#N)c2)cn1)c1csc(NS(=O)(=O)C2CC2)n1 (stereo not shown) [T180] |
| < 100 nM | CCC(C(=O)Nc1ccc(-c2cncc(OCC(F)(F)F)n2)cn1)c1csc(NS(=O)(=O)C2CC2)n1 (stereo not shown) [T182] |
| < 100 nM | CCOc1cncc(-c2cnc(NC(=O)C(CC)c3csc(NS(=O)(=O)C4CC4)n3)c(F)c2)n1 (stereo not shown) [T183] |
| < 100 nM | CCC(C(=O)Nc1ccc(-c2cncc(OC(F)F)c2)cn1)c1csc(NS(=O)(=O)C2CC2)n1 (stereo not shown) [T186] |
| < 100 nM | CCC(C(=O)Nc1ccc(-c2cncc(Cl)n2)cn1)c1csc(NS(=O)(=O)C2CC2)n1 (stereo not shown) [T187] |
| < 100 nM | CCOc1cncc(-c2ccc(NC(=O)C(CC)c3csc(NS(=O)(=O)C4CC4)n3)cc2)n1 (stereo not shown) [T189] |
| < 100 nM | COCCC(C(=O)Nc1ccc(-c2cncc(OC)n2)cc1)c1csc(NS(=O)(=O)C2CC2)n1 (stereo not shown) [T190] |
| < 100 nM | COCCC(C(=O)Nc1ccc(-c2cncc(F)c2)cc1)c1csc(NS(=O)(=O)C2CC2)n1 (stereo not shown) [T191] |
| < 100 nM | CCOc1cncc(-c2ccc(NC(=O)C(C)c3csc(NS(=O)(=O)C4CC4)n3)cc2)n1 (stereo not shown) [T192] |
| < 100 nM | CCC(C(=O)Nc1ccc(-c2cncc(C(F)(F)F)c2)cc1)c1csc(NS(=O)(=O)C2CC2)n1 (stereo not shown) [T193] |
| < 100 nM | CCC(C(=O)Nc1ccc(-c2cncc(C#N)c2)cc1)c1csc(NS(=O)(=O)C2CC2)n1 (stereo not shown) [T194] |
| < 100 nM | CCC(C(=O)Nc1ccc(-c2cncc(OCC(F)(F)F)n2)cc1)c1csc(NS(=O)(=O)C2CC2)n1 (stereo not shown) [T195] |
| < 100 nM | CCC(C(=O)Nc1ccc(-c2cnccn2)cc1F)c1csc(NS(=O)(=O)C2CC2)n1 (stereo not shown) [T196] |
